Measurements published in PubChem BioAssay AID248 (DTP/NCI, 2004).
Several values for one entry are separate records, joined by “and”; a condition that tells them apart may be missing. Equal values may be shown once. Toxic doses and inconclusive results are not listed. Cut-off read from the data, not from the text of the source: active = T/C of 150% or more; inactive = T/C below 125%.

Test system: L1210 leukemia ip in BDF1 mice, survival T/C
Assay: NCI In Vivo Anticancer Drug Screen. Data for tumor model L1210 Leukemia (intraperitoneal) in B6D2F1 (BDF1) mice
Settings: endpoint: mean survival time, higher = longer survival
In short: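 Each compound was tested against a transplantable tumor grown in mice. The endpoint was survival, with treated animals benchmarked against vehicle controls as a simple ratio.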

[1] = dose: 100.0 mg/kg/injection, schedule: Q01DX009 (ip), vehicle: saline with Tween-80
[2] = dose: 100.0 mg/kg/injection, schedule: Q04DX002 (ip), vehicle: saline with Tween-80
[3] = dose: 200.0 mg/kg/injection, schedule: Q01DX009 (ip), vehicle: saline with Tween-80
[4] = dose: 200.0 mg/kg/injection, schedule: Q04DX002 (ip), vehicle: saline with Tween-80
[5] = dose: 400.0 mg/kg/injection, schedule: Q04DX002 (ip), vehicle: saline with Tween-80
[6] = dose: 100.0 mg/kg/injection, schedule: Q01DX001 (ip), vehicle: saline
[7] = dose: 200.0 mg/kg/injection, schedule: Q01DX001 (ip), vehicle: saline
[8] = dose: 400.0 mg/kg/injection, schedule: Q01DX001 (ip), vehicle: saline
[9] = dose: 100.0 mg/kg/injection, schedule: Q01DX009 (ip), vehicle: Klucel (hydroxypropylcellulose) (HPC)
[10] = dose: 100.0 mg/kg/injection, schedule: Q04DX003 (ip), vehicle: Klucel (hydroxypropylcellulose) (HPC)
[11] = dose: 200.0 mg/kg/injection, schedule: Q04DX003 (ip), vehicle: Klucel (hydroxypropylcellulose) (HPC)
[12] = dose: 400.0 mg/kg/injection, schedule: Q04DX003 (ip), vehicle: Klucel (hydroxypropylcellulose) (HPC)
[13] = dose: 50.0 mg/kg/injection, schedule: Q01DX009 (ip), vehicle: saline
[14] = dose: 100.0 mg/kg/injection, schedule: Q01DX009 (ip), vehicle: saline
[15] = dose: 100.0 mg/kg/injection, schedule: Q04DX003 (ip), vehicle: saline
[16] = dose: 200.0 mg/kg/injection, schedule: Q01DX009 (ip), vehicle: saline
[17] = dose: 200.0 mg/kg/injection, schedule: Q04DX003 (ip), vehicle: saline

Measured: T/C

O=C(N/N=C/c1ccco1)c1ccccc1
inactive: dose: 50.0 mg/kg/injection, schedule: Q01DX009 (ip), vehicle: saline with Tween-80 94 % of control and 103 % of control | dose: 100.0 mg/kg/injection, schedule: Q01DX001 (ip), vehicle: saline with Tween-80 106 % of control | [1] 100 % of control and 103 % of control | [2] 96 % of control | dose: 100.0 mg/kg/injection, schedule: Q04DX003 (ip), vehicle: saline with Tween-80 98 % of control | dose: 200.0 mg/kg/injection, schedule: Q01DX001 (ip), vehicle: saline with Tween-80 101 % of control | [3] 103 % of control and 87 % of control | [4] 97 % of control | dose: 200.0 mg/kg/injection, schedule: Q04DX003 (ip), vehicle: saline with Tween-80 105 % of control | dose: 400.0 mg/kg/injection, schedule: Q01DX001 (ip), vehicle: saline with Tween-80 114 % of control | [5] 110 % of control | dose: 400.0 mg/kg/injection, schedule: Q04DX003 (ip), vehicle: saline with Tween-80 103 % of control

CCOc1cc(-c2ccc(OC)cc2)nc(N)n1
inactive: [2] 91 % of control | [4] 97 % of control | [5] 91 % of control

CC(C)(N)CC(=O)Oc1ccccc1
inactive: dose: 37.5 mg/kg/injection, schedule: Q04DX003 (ip), vehicle: saline 97 % of control | dose: 75.0 mg/kg/injection, schedule: Q01DX001 (ip), vehicle: saline 104 % of control | dose: 150.0 mg/kg/injection, schedule: Q01DX001 (ip), vehicle: saline 101 % of control | dose: 150.0 mg/kg/injection, schedule: Q04DX003 (ip), vehicle: saline 92 % of control

N=C1C=C(N)C(=O)c2ccccc21
inactive: dose: 0.78 mg/kg/injection, schedule: Q01DX009 (ip), vehicle: Klucel (hydroxypropylcellulose) (HPC) 103 % of control | dose: 1.56 mg/kg/injection, schedule: Q01DX009 (ip), vehicle: Klucel (hydroxypropylcellulose) (HPC) 103 % of control | dose: 3.13 mg/kg/injection, schedule: Q01DX009 (ip), vehicle: Klucel (hydroxypropylcellulose) (HPC) 107 % of control | [1] 101 % of control

O=S1(=O)CCS(=O)(=O)C12CCCCC2
inactive: [6] 98 % of control | [7] 107 % of control | [8] 90 % of control

CCc1c(Cl)c(C)c(Cl)c(O)c1Cl
inactive: dose: 100.0 mg/kg/injection, schedule: Q04DX003 (ip), vehicle: other 102 % of control | dose: 200.0 mg/kg/injection, schedule: Q04DX003 (ip), vehicle: other 93 % of control

CCCCCCCCC(C(=O)c1ccccc1)C(O)(C(F)(F)F)C(F)(F)F (configuration not stated)
inactive: [1] 100 % of control | [3] 106 % of control

COc1ccc(C(=O)N/N=C/c2c(Cl)cccc2Cl)cc1
inactive: dose: 25.0 mg/kg/injection, schedule: Q01DX009 (ip), vehicle: Klucel (hydroxypropylcellulose) (HPC) 92 % of control | dose: 50.0 mg/kg/injection, schedule: Q01DX009 (ip), vehicle: Klucel (hydroxypropylcellulose) (HPC) 90 % of control | [9] 93 % of control and 104 % of control

CN(C)CCc1ccccc1OC1CCCC1
inactive: dose: 75.0 mg/kg/injection, schedule: Q01DX001 (ip), vehicle: other 101 % of control | dose: 150.0 mg/kg/injection, schedule: Q01DX001 (ip), vehicle: other 102 % of control | dose: 300.0 mg/kg/injection, schedule: Q01DX001 (ip), vehicle: other 101 % of control

c1cc[c]([Sn]([c]2ccccc2)([c]2ccccc2)[n]2ccnc2)cc1
inactive: dose: 5.0 mg/kg/injection, schedule: Q01DX001 (ip), vehicle: other 95 % of control | dose: 10.0 mg/kg/injection, schedule: Q01DX001 (ip), vehicle: other 108 % of control

CCCCCCCCCC/C=N\N=C(N)N
inactive: dose: 15.0 mg/kg/injection, schedule: Q01DX Z (ip), vehicle: other 107 % of control | dose: 15.0 mg/kg/injection, schedule: Q01DX Z (oral), vehicle: carboxymethylcellulose (CMC) 96 % of control | dose: 30.0 mg/kg/injection, schedule: Q01DX Z (ip), vehicle: other 97 % of control | dose: 30.0 mg/kg/injection, schedule: Q01DX Z (oral), vehicle: carboxymethylcellulose (CMC) 103 % of control | dose: 60.0 mg/kg/injection, schedule: Q01DX Z (oral), vehicle: carboxymethylcellulose (CMC) 96 % of control | dose: 120.0 mg/kg/injection, schedule: Q01DX Z (oral), vehicle: carboxymethylcellulose (CMC) 103 % of control

CN(C)C(=O)SSC(=S)N(C)C
inactive: dose: 4.0 mg/kg/injection, schedule: Q01DX015 (ip), vehicle: carboxymethylcellulose (CMC) 93 % of control | dose: 8.0 mg/kg/injection, schedule: Q01DX015 (ip), vehicle: carboxymethylcellulose (CMC) 92 % of control | dose: 16.0 mg/kg/injection, schedule: Q01DX015 (ip), vehicle: carboxymethylcellulose (CMC) 106 % of control | dose: 32.0 mg/kg/injection, schedule: Q01DX015 (ip), vehicle: carboxymethylcellulose (CMC) 97 % of control and 98 % of control | dose: 64.0 mg/kg/injection, schedule: Q01DX015 (ip), vehicle: carboxymethylcellulose (CMC) 98 % of control | dose: 128.0 mg/kg/injection, schedule: Q01DX015 (ip), vehicle: carboxymethylcellulose (CMC) 96 % of control

COc1ccccc1NC(=O)N(Cc1ccccc1)C(C)(C)C
inactive: dose: 100.0 mg/kg/injection, schedule: Q04DX002 (ip), vehicle: Klucel (hydroxypropylcellulose) (HPC) 95 % of control | dose: 200.0 mg/kg/injection, schedule: Q04DX002 (ip), vehicle: Klucel (hydroxypropylcellulose) (HPC) 100 % of control | dose: 400.0 mg/kg/injection, schedule: Q04DX002 (ip), vehicle: Klucel (hydroxypropylcellulose) (HPC) 88 % of control

O=[N+]([O-])c1cc([N+](=O)[O-])c2ccc(Cl)nc2c1O
inactive: [6] 98 % of control | [7] 98 % of control | [8] 96 % of control

O=C(O)c1ccc(S(=O)(=O)c2ccc(C(=O)O)cc2)cc1
inactive: [10] 103 % of control | [11] 97 % of control | [12] 88 % of control

C=CCNCC1OC(OC)C2OC(C)(C)OC12 (configuration not stated)
inactive: [13] 101 % of control | [14] 104 % of control | [15] 109 % of control | [16] 104 % of control | [17] 102 % of control

Cc1ccc2[nH]c(O)c(N=Nc3ccccc3[N+](=O)[O-])c2c1
inactive: [6] 90 % of control | [7] 93 % of control

N#Cc1cnc2nc(N)nc(N)c2c1
inactive: [13] 95 % of control and 105 % of control | [14] 95 % of control and 91 % of control | [15] 95 % of control | [16] 95 % of control and 98 % of control and 90 % of control | [17] 106 % of control

COc1ccc(CC(CO)C(CO)Cc2ccc(OC)c(OC)c2)cc1OC (configuration not stated)
inactive: [9] 97 % of control | [10] 98 % of control | dose: 200.0 mg/kg/injection, schedule: Q01DX009 (ip), vehicle: Klucel (hydroxypropylcellulose) (HPC) 93 % of control | [11] 101 % of control | dose: 400.0 mg/kg/injection, schedule: Q01DX009 (ip), vehicle: Klucel (hydroxypropylcellulose) (HPC) 93 % of control | [12] 100 % of control
